{
  "source": "patent US6737383B1",
  "about": "“Herbicidal oxadiazolidines” (priority 1999, dated 2004)",
  "key": {"winter wheat [1]": {"system": "winter wheat", "assay": "Test E winter wheat", "format": "in vivo, Triticum aestivum", "conditions": "Preemergence"}, "winter wheat [2]": {"system": "winter wheat", "assay": "Test E winter wheat", "format": "in vivo, Triticum aestivum", "conditions": "Postemergence", "summary_of_the_method": "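Greenhouse test: compounds in non-phytotoxic solvent with surfactant; for postemergence, sprayed on plants at 1- to 4-leaf stage grown in 60:40 sandy loam/potting mix. Injury rated visually against untreated controls after about 21 to 28 days.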"}, "sugar beet": {"system": "sugar beet", "assay": "Test B pre/postemergence sugar beet", "format": "in vivo, Beta vulgaris", "summary_of_the_method": "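Response is a visual 0-to-10 score relative to untreated plants, where 0 means no effect and 10 means complete control, taken twelve to sixteen days after application. Treatments went onto soil at planting and onto foliage of 1- to 4-leaf plants, using a surfactant-containing non-phytotoxic solvent.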"}, "bamyardgrass": {"system": "bamyardgrass", "assay": "Test B flood test barnyardgrass", "format": "in vivo, Echinochloa crus-galli", "summary_of_the_method": "(§1)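 Read-out is a visual response score from 0 (no effect) to 10 (complete control), assigned by comparison with untreated controls. Treatment was applied at the 2-leaf stage, and plants stayed in the greenhouse for twelve to sixteen days before scoring.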"}, "smallflower flatsedge": {"system": "smallflower flatsedge", "assay": "Test B flood test smallflower flatsedge", "format": "in vivo, Cyperus difformis", "summary_of_the_method": "as §1"}, "rice": {"system": "rice", "assay": "Test B flood test rice", "format": "in vivo, Oryza sativa", "summary_of_the_method": "as §1"}, "blackgrass": {"system": "blackgrass", "assay": "Test E blackgrass", "format": "in vivo, Alopecurus myosuroides", "conditions": "Preemergence"}, "wild oat": {"system": "wild oat", "assay": "Test E wild oat", "format": "in vivo, Avena fatua", "conditions": "Preemergence, 0 to 100 scale where 0 is no effect and 100 is complete control"}, "Italian ryegrass": {"system": "Italian ryegrass", "assay": "Test E Italian ryegrass", "format": "in vivo, Lolium multiflorum", "conditions": "Preemergence"}, "duck salad": {"system": "duck salad", "assay": "Test B flood test duck salad", "format": "in vivo, Heteranthera limosa", "summary_of_the_method": "as §1"}, "green foxtail": {"system": "green foxtail", "assay": "Test E green foxtail", "format": "in vivo, Setaria viridis", "conditions": "Preemergence"}, "winter barley": {"system": "winter barley", "assay": "Test E winter barley", "format": "in vivo, Hordeum vulgare", "conditions": "Preemergence"}, "[3]": {"conditions": "Rate 500 g/ha, 0 to 100 scale where 0 is no effect and 100 is complete control"}, "[4]": {"conditions": "Rate 1000 g/ha, 0 to 100 scale where 0 is no effect and 100 is complete control"}, "[5]": {"conditions": "Postemergence, Rate 62 g/ha, scale 0 to 10, 0 is no effect, 10 is complete control"}, "[6]": {"conditions": "Rate 125 g/ha, Postemergence section (flood test species), scale 0 to 10, 0 no effect, 10 complete control"}, "[7]": {"conditions": "Rate 500 g/ha, listed under Postemergence (flood test species), scale 0 to 10, 0 no effect, 10 complete control"}, "[8]": {"conditions": "flood test, listed under Postemergence, Rate 250 g/ha, scale 0 to 10, 0 no effect, 10 complete control"}},
  "data": [
    {"compound": "Cc1ccccc1-n1c(=O)on(C(=O)N(c2cc(F)cc(F)c2)C(C)C)c1=O", "note": "[Compound 67]", "values": [
      {"measurement": "Plant response rating, Wheat (winter)", "setting": "winter wheat [1]; Rate 250 g/ha, 0 to 100 scale", "value": 10},
      {"measurement": "Plant response rating, Wheat (winter)", "setting": "winter wheat [1]; [3]", "value": 10},
      {"measurement": "Plant response rating, Wheat (winter)", "setting": "winter wheat [1]; [4]", "value": 20},
      {"measurement": "Plant response rating, Wheat (winter)", "setting": "winter wheat [2]; Rate 250 g/ha, 0 to 100 scale (0 no effect, 100 complete control)", "value": 20},
      {"measurement": "Plant response rating, Wheat (winter)", "setting": "winter wheat [2]; Rate 1000 g/ha, 0 to 100 scale, 0 is no effect and 100 is complete control", "value": 40},
      {"measurement": "Plant response rating, Wheat (winter)", "setting": "winter wheat [2]; Rate 500 g/ha, 0 to 100 scale, 0 no effect, 100 complete control", "value": 30},
      {"measurement": "Sugarbeets plant response rating", "setting": "sugar beet; [5]", "value": 0},
      {"measurement": "Sugarbeets plant response rating", "setting": "sugar beet; Postemergence, Rate 250 g/ha, scale 0 to 10, 0 no effect, 10 complete control", "value": 0},
      {"measurement": "Sugarbeets plant response rating", "setting": "sugar beet; Preemergence, Rate 62 g/ha, scale 0 to 10 (0 no effect, 10 complete control)", "value": 0},
      {"measurement": "Plant response rating, Sugarbeets", "setting": "sugar beet; Preemergence, Rate 125 g/ha, scale 0 to 10 (0 no effect, 10 complete control)", "value": 0},
      {"measurement": "Plant response rating, Sugarbeets", "setting": "sugar beet; Preemergence, Rate 250 g/ha, scale of 0 to 10 where 0 is no effect and 10 is complete control", "value": 0},
      {"measurement": "Sugarbeets plant response rating", "setting": "sugar beet; Preemergence, Rate 500 g/ha, scale 0 (no effect) to 10 (complete control)", "value": 3},
      {"measurement": "Sugarbeets plant response rating", "setting": "sugar beet; Rate 125 g/ha, Postemergence, scale 0 to 10, 0 no effect, 10 complete control", "value": 0},
      {"measurement": "Sugarbeets plant response rating", "setting": "sugar beet; Rate 500 g/ha, Postemergence, scale 0 to 10, 0 no effect, 10 complete control", "value": 2},
      {"measurement": "Barnyardgrass plant response rating", "setting": "bamyardgrass; [5]", "value": 0},
      {"measurement": "Barnyardgrass plant response rating", "setting": "bamyardgrass; [6]", "value": 0},
      {"measurement": "Barnyardgrass plant response rating", "setting": "bamyardgrass; [7]", "value": 0},
      {"measurement": "Barnyardgrass plant response rating", "setting": "bamyardgrass; [8]", "value": 0},
      {"measurement": "S. Flatsedge plant response rating", "setting": "smallflower flatsedge; [5]", "value": 0},
      {"measurement": "S. Flatsedge plant response rating", "setting": "smallflower flatsedge; [6]", "value": 0},
      {"measurement": "S. Flatsedge plant response rating", "setting": "smallflower flatsedge; [7]", "value": 0},
      {"measurement": "S. Flatsedge plant response rating", "setting": "smallflower flatsedge; [8]", "value": 0},
      {"measurement": "Rice plant response rating", "setting": "rice; [5]", "value": 0},
      {"measurement": "Rice plant response rating", "setting": "rice; [6]", "value": 0},
      {"measurement": "Rice plant response rating", "setting": "rice; [7]", "value": 0},
      {"measurement": "Rice plant response rating", "setting": "rice; [8]", "value": 0},
      {"measurement": "Plant response rating, Blackgrass", "setting": "blackgrass; Rate 250 g/ha, 0 to 100 scale", "value": 10},
      {"measurement": "Plant response rating, Blackgrass", "setting": "blackgrass; [3]", "value": 20},
      {"measurement": "Plant response rating, Blackgrass", "setting": "blackgrass; [4]", "value": 40},
      {"measurement": "Plant response rating, Wild oat", "setting": "wild oat; Rate 500 g/ha", "value": 40},
      {"measurement": "Plant response rating, Wild oat", "setting": "wild oat; Rate 1000 g/ha", "value": 50},
      {"measurement": "Plant response rating, I. Ryegrass", "setting": "Italian ryegrass; Rate 250 g/ha, 0 to 100 scale", "value": 40},
      {"measurement": "Plant response rating, I. Ryegrass", "setting": "Italian ryegrass; [3]", "value": 30},
      {"measurement": "Plant response rating, I. Ryegrass", "setting": "Italian ryegrass; [4]", "value": 50},
      {"measurement": "Ducksalad plant response rating", "setting": "duck salad; [5]", "value": 0},
      {"measurement": "Ducksalad plant response rating", "setting": "duck salad; [6]", "value": 0},
      {"measurement": "Ducksalad plant response rating", "setting": "duck salad; [7]", "value": 0},
      {"measurement": "Ducksalad plant response rating", "setting": "duck salad; [8]", "value": 0},
      {"measurement": "Plant response rating, Green foxtail", "setting": "green foxtail; Rate 250 g/ha, 0 to 100 scale", "value": 30},
      {"measurement": "Plant response rating, Green foxtail", "setting": "green foxtail; [3]", "value": 55},
      {"measurement": "Plant response rating, Green foxtail", "setting": "green foxtail; [4]", "value": 60},
      {"measurement": "Plant response rating, Barley (winter)", "setting": "winter barley; Rate 250 g/ha, 0 to 100 scale", "value": 20},
      {"measurement": "Plant response rating, Barley (winter)", "setting": "winter barley; [3]", "value": 40},
      {"measurement": "Plant response rating, Barley (winter)", "setting": "winter barley; [4]", "value": 40}
    ]}
  ]
}
